Source: ChEMBL document CHEMBL3525928 (Drug Metab Dispos, 2011)

Experiments:
Format in all cases: ADME, cell-based
OATP2B1 [1] = biological target: T1, OATP2B1 (Homo sapiens, UniProt O94956); test: Drug uptake ratio assessed as enzyme-mediated uptake in HEK293 cells expressing human OATP2B1 at 1 uM at 37 degC for 3 mins by liquid scintillation spectroscopy relative to wild type
T1 sequence (O94956 whole entry): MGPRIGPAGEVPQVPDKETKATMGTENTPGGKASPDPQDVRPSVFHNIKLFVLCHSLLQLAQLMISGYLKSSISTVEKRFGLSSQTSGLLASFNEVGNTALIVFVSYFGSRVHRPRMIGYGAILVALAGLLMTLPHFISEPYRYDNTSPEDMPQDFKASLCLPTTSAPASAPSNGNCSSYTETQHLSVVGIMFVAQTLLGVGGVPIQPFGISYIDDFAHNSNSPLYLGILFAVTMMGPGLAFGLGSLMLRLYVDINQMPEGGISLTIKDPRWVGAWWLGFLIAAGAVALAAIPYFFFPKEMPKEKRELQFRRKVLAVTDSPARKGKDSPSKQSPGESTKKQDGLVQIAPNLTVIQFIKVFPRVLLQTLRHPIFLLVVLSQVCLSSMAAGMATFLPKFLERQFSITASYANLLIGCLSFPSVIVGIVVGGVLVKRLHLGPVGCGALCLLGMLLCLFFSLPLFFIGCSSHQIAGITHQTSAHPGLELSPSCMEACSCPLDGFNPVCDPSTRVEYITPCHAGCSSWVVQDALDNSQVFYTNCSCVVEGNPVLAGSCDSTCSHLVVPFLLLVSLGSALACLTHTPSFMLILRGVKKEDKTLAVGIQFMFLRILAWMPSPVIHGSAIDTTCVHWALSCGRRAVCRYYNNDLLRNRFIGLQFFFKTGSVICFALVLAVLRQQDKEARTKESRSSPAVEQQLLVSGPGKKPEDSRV

OATP1B1 [2] = biological target: T2, OATP1B1 (Homo sapiens, UniProt Q9Y6L6); test: Drug uptake ratio assessed as enzyme-mediated uptake in HEK293 cells expressing human OATP1B1 at 1 uM at 37 degC for 3 mins by liquid scintillation spectroscopy relative to wild type
T2 sequence (Q9Y6L6 whole entry): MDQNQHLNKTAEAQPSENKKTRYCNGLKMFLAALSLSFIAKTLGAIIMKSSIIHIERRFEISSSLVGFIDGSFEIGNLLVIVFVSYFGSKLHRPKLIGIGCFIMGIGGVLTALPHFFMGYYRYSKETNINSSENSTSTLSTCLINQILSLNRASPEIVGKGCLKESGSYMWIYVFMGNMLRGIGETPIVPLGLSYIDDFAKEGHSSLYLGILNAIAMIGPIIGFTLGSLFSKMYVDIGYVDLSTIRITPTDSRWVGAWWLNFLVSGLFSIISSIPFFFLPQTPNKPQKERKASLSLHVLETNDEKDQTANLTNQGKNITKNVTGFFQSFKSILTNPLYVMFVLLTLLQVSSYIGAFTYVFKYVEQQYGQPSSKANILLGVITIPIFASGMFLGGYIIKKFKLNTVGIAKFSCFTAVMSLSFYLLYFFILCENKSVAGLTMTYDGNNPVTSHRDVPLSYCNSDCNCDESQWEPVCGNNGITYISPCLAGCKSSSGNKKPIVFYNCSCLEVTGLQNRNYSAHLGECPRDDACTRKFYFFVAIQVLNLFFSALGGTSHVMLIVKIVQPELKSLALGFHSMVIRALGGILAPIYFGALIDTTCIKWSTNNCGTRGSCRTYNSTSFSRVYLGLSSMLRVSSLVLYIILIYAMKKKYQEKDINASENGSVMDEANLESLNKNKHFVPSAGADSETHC

OATP2B1 [3] = biological target: T1, OATP2B1; test: Drug uptake ratio assessed as enzyme-mediated uptake in HEK293 cells expressing human OATP2B1 at 10 uM at 37 degC for 3 mins by liquid scintillation spectroscopy relative to wild type
OATP1B1 [4] = biological target: T2, OATP1B1; test: Drug uptake ratio assessed as enzyme-mediated uptake in HEK293 cells expressing human OATP1B1 at 10 uM at 37 degC for 3 mins by liquid scintillation spectroscopy relative to wild type
OATP1B3 [5] = biological target: T3, OATP1B3 (Homo sapiens, UniProt Q9NPD5); test: Drug uptake ratio assessed as enzyme-mediated uptake in HEK293 cells expressing human OATP1B3 at 10 uM at 37 degC for 3 mins by liquid scintillation spectroscopy relative to wild type
T3 sequence (Q9NPD5 whole entry): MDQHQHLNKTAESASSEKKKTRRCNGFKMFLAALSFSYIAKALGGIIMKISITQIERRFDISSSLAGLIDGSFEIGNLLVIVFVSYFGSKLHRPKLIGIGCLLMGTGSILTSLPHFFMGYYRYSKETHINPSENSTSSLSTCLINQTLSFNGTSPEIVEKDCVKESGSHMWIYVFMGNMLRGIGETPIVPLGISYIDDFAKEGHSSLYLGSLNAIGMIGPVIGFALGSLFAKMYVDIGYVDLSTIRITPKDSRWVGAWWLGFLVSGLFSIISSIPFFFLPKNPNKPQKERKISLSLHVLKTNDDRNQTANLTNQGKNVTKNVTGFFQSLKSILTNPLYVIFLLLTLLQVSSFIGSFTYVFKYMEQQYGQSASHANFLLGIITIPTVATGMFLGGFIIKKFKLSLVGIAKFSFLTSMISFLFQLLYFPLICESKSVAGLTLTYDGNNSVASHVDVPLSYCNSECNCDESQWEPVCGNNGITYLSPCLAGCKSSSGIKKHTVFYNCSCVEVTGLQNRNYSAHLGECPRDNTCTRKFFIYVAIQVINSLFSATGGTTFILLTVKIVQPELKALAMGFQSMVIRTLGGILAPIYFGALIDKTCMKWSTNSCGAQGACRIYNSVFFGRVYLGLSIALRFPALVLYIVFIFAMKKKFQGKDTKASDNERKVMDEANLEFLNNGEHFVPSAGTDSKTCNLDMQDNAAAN

OATP1B3 [6] = biological target: T3, OATP1B3; test: Drug uptake ratio assessed as enzyme-mediated uptake in HEK293 cells expressing human OATP1B3 at 10 uM at 37 degC for 3 mins cells pretreated with sodium butyrate by liquid scintillation spectroscopy relative to wild type
OATP1B3 [7] = biological target: T3, OATP1B3; test: Drug uptake ratio assessed as enzyme-mediated uptake in HEK293 cells expressing human OATP1B3 at 1 uM at 37 degC for 3 mins cells pretreated with sodium butyrate by liquid scintillation spectroscopy relative to wild type
OATP1B3 [8] = biological target: T3, OATP1B3; test: Drug uptake ratio assessed as enzyme-mediated uptake in HEK293 cells expressing human OATP1B3 at 1 uM at 37 degC for 3 mins by liquid scintillation spectroscopy relative to wild type

Compound | uptake ratio at 0.05 h, 1 µM (OATP2B1 [1]) | uptake ratio at 0.05 h, 1 µM (OATP1B1 [2]) | uptake ratio at 0.05 h, 10 µM (OATP2B1 [3]) | uptake ratio at 0.05 h, 10 µM (OATP1B1 [4]) | uptake ratio at 0.05 h, 10 µM (OATP1B3 [5]) | uptake ratio at 0.05 h, 10 µM (OATP1B3 [6]) | uptake ratio at 0.05 h, 1 µM (OATP1B3 [7]) | uptake ratio at 0.05 h, 1 µM (OATP1B3 [8])
C[C@]12CC[C@@H]3c4ccc(OS(=O)(=O)O)cc4CC[C@H]3[C@@H]1CCC2=O [ESTRONE SULFURIC ACID] | 44 | 6.7 | 50 | 2.2 | – | – | – | –
Cc1ncc2n1-c1ccc(Cl)cc1C(c1ccccc1F)=NC2 [MIDAZOLAM] | – | 0.92 | – | 0.92 | 1.7 | 1.9 | 2.1 | 1.7
CC(C)c1nc(N(C)S(C)(=O)=O)nc(-c2ccc(F)cc2)c1/C=C/[C@@H](O)C[C@@H](O)CC(=O)O [ROSUVASTATIN] | 6 | 3.4 | 6.3 | 1.9 | 39 | 25 | 16 | 35
